In data set [1] the test system is NCI-H1299. Briefly: Antitumor activity against human NCI-H1299 cells xenografted in po dosed BALB/c mouse assessed as reduction in tumor growth administered every 2 days for 2 weeks. It is filed as functional, organism-based. The settings on record: dose 5-10 mg/kg. For orientation: In xenograft studies the graft and the host belong to different species.
The subject of data set [2] is NCI-H1299. Kind of data set: Induction of apoptosis in human NCI-H1299 cells assessed as viable cells at 2.5 uM measured after 48 hrs by Annexin V/FITC staining based flow cytometric analysis (reference value: 96.3%). Format: functional. Particulars: read-out: Activity.
The subject of another data set is NSCLC. Kind of data set: Downregulation of TrxR1 expression in human NSCLC cells by IHC analysis. Format: functional, cell-based.
Data set [3] concerns A549. Briefly: Induction of ferroptosis in human A549 cells assessed as cell death by MTT assay. It is filed as functional, cell-based. For orientation: Tetrazolium assays rely on reduction of a dye to a coloured formazan, in cell work by metabolically active cells.
Data set [4] is described as follows: Toxicity in BALB/c mouse assessed as kidney damage at 5 to 10 mg/kg, po administered every 2 days for 2 weeks by H and E staining based analysis. It is filed as organism-based. The settings on record: in vivo, 336 h, dose 5-10 mg/kg.
Data set [5] relates to A549. Briefly: Induction of apoptosis in human A549 cells assessed as viable cells at 10 uM measured after 48 hrs by Annexin V/FITC staining based flow cytometric analysis (reference value: 90.8 %). The settings on record: read-out: Activity. Format: functional. Background: A flow cytometer gives signals particle by particle.
For data set [6], the system named is A549. Kind of data set: Induction of apoptosis in human A549 cells assessed as viable cells at 2.5 uM measured after 48 hrs by Annexin V/FITC staining based flow cytometric analysis (reference value: 90.8 %). Particulars: read-out: Activity. Format: functional.
Data set [7] deals with T1, Thioredoxin reductase 1, cytoplasmic (Homo sapiens) (UniProt Q16881).
T1 sequence (whole entry): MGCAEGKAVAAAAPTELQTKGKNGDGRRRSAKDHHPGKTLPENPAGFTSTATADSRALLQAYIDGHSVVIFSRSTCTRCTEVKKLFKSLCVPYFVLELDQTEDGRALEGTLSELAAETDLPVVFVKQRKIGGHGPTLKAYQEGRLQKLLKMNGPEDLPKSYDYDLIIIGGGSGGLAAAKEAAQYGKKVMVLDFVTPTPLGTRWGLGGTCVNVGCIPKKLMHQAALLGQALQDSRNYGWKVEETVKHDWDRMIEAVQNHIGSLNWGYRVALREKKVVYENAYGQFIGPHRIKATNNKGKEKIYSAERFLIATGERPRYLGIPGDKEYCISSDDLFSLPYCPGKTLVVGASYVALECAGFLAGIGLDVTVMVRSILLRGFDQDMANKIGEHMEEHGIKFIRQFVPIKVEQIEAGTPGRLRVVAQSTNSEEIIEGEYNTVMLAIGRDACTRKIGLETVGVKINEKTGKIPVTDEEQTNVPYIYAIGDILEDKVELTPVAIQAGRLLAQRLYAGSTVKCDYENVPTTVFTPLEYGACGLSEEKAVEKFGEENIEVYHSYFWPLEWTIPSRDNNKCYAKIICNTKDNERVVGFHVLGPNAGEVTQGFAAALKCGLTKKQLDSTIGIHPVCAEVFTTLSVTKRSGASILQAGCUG
Kind of data set: Inhibition of TrxR1 in human NCI-H2291 cells. It is filed as cell-based. The settings on record: dose <= 10.0 µM.

The subject of data set [8] is A549. Briefly: Induction of apoptosis in human A549 cells assessed as late apoptotic cells at 2.5 uM measured after 48 hrs by Annexin V/FITC staining based flow cytometric analysis (reference value: 5.37%). Format: functional.
For data set [9], the system named is NCI-H1299. Kind of data set: Antitumor activity against human NCI-H1299 cells xenografted in BALB/c mouse assessed as decrease in Ki-67 expression at 5 to 10 mg/kg, po administered every 2 days for 2 weeks by IHC analysis. It is filed as functional, organism-based. The settings on record: dose 5-10 mg/kg.
Data set [10] relates to A549. Kind of data set: Induction of apoptosis in human A549 cells assessed as necrotic cells at 10 uM measured after 48 hrs by Annexin V/FITC staining based flow cytometric analysis (reference value: 2.52 %). It is filed as functional.
Data set [11] concerns A549. Briefly: Induction of apoptosis in human A549 cells assessed as decrease in BCl-2 expression at upto 10 uM incubated for 24 hrs by Western blot analysis. Format: functional, cell-based.
Data set [12] relates to A549. Kind of data set: Induction of apoptosis in human A549 cells assessed as increase in Bax expression at upto 10 uM incubated for 24 hrs by Western blot analysis. Format: functional, cell-based.

Active and inactive are the calls of the source. The calls are words filed in the database; no cut-off is given here.

In the case of `CCCNC(=O)O[C@@H]1/C=C(\C)C[C@H]2C=C(C[C@@H]3OC(=O)[C@H](CSC(=S)N(C)C)[C@H]31)C(=O)O2`, the Activity entry with NCI-H1299 [1] is “Dose-dependent-effect”; in data set [4], “Non-toxic”; with A549 [8], 6.69%; with A549 [10], 3.24%. The viability at 2.5 µM in the data set on NCI-H1299 [2] came out at 89.7%; in the data set on A549 [6], 87.7%. Moreover, the result in the data set on NSCLC, with A549 [3], in the data set with NCI-H1299 [9], with A549 [11] and in the data set on A549 [12] was Active. For the same compound, the viability at 10 µM in the data set on A549 [5] amounted to 68.8%. Moreover, in [7], the inhibition result is “Dose-dependent-effect”.

The values above are taken from ChEMBL document CHEMBL6121052, “Design of ROS-Triggered Sesquiterpene Lactone SC Prodrugs as TrxR1 Covalent Inhibitors for the Treatment of Non-Small Cell Lung Cancer” (J Med Chem, 2025).
